Assay results: ChEMBL document CHEMBL6178014, “Discovery and Administration Optimization of Novel Selective CDK9 Inhibitor, 1-7a-B1, for Improved Pharmacokinetics and Antitumor Efficacy In Vivo” (J Med Chem, 2025)
Active and inactive are the calls of the source. The rule behind the calls is not given here.

What was measured:
HCT-116 [1] = test: Downregulation of c-Myc mRNA level in human HCT-116 cells at 200 to 400 nM incubated for 48 hrs by qRT-PCR analysis; format: functional, cell-based; settings: dose 200-400 nM
[2] = AUC (0 to t) in Sprague-Dawley rat at 30 mg/kg, po as submicron emulsion measured after 24 hrs by LC-MS/MS analysis; format: ADME, organism-based; settings: in vivo
[3] = target: Cellular tumor antigen p53 (Homo sapiens) (UniProt P04637); test: Induction of stabilization of wild type p53 in human HCT-116 cells at 100 to 400 nM incubated for 48 hrs by Western blot analysis; format: cell-based; settings: dose 100-400 nM
[4] = Volume of distribution in Sprague-Dawley rat at 2 mg/kg, iv measured after 24 hrs by LC-MS/MS analysis; format: ADME, organism-based; settings: in vivo
HCT-116 [5] = test: Antitumor activity against human HCT-116 cells xenografted in female BALB/c nu-nu mouse assessed as increase in PARP cleavage at 40 mg/kg, po incubated for 48 hrs by Western blot analysis; format: functional, organism-based
[6] = MRT (infinity) in Sprague-Dawley rat at 30 mg/kg, po as submicron emulsion measured after 24 hrs by LC-MS/MS analysis; format: ADME, organism-based; settings: in vivo
HCT-116 [7] = test: Antitumor activity against human HCT-116 cells xenografted in female BALB/c nu-nu mouse assessed as reduction in Ki67 positive cells at 20 mg/kg, po as submicron emulsion by staining based analysis; format: functional, organism-based
CYP2D6 = CYP2D6 (Homo sapiens, UniProt P10635); test: Inhibition of CYP2D6 in human liver microsome at 10 uM pre-incubated with compound for 10 mins in presence of NADPH-regenerating system by LC-MS/MS analysis relative to control; format: ADME; settings: liver microsomes
HCT-116 [8] = test: Downregulation of Bcl-2 mRNA level in human HCT-116 cells at 200 to 400 nM incubated for 48 hrs by qRT-PCR analysis; format: functional, cell-based; settings: dose 200-400 nM
[9] = AUC (0 to t) in Sprague-Dawley rat at 2 mg/kg, iv measured after 24 hrs by LC-MS/MS analysis; format: ADME, organism-based; settings: in vivo
[10] = MRT (infinity) in Sprague-Dawley rat at 2 mg/kg, iv measured after 24 hrs by LC-MS/MS analysis; format: ADME, organism-based; settings: in vivo
[11] = Half life in Sprague-Dawley rat at 30 mg/kg, po as submicron emulsion measured after 24 hrs by LC-MS/MS analysis; format: ADME, organism-based; settings: in vivo
HCT-116 [12] = test: Induction of cell cycle arrest in human HCT-116 cells assessed as accumulation of cells at S phase incubated for 48 hrs by PI/RNase staining based flow cytometry analysis; format: functional
CYP2C9 = CYP2C9 (Homo sapiens, UniProt P11712); test: Inhibition of CYP2C9 in human liver microsome at 10 uM pre-incubated with compound for 10 mins in presence of NADPH-regenerating system by LC-MS/MS analysis relative to control; format: ADME; settings: liver microsomes
HCT-116 [13] = test: Antitumor activity against human HCT-116 cells xenografted in female BALB/c nu-nu mouse assessed as reduction in Ki67 positive cells at 40 mg/kg, po by staining based analysis; format: functional, organism-based
HCT-116 [14] = test: Upregulation of Bax expression in human HCT-116 cells at 100 to 400 nM incubated for 48 hrs by Western blot analysis; format: functional, cell-based; settings: dose 100-400 nM
CDK9/cyclin T1 = CDK9/cyclin T1 (Homo sapiens, UniProt P50750); test: Inhibition of His-tagged full length human recombinant CDK9/cyclinT1 using KTFCGTPEYLAPEVRREPRILSEEEQEMFRDFDYIADWC as substrate incubated for 60 mins by ADP-Glo kinase assay; format: protein-complex assay
HCT-116 [15] = test: Antitumor activity against human HCT-116 cells xenografted in female BALB/c nu-nu mouse assessed as tumor growth inhibition at 20 mg/kg, po as submicron emulsion administered once daily for 3 weeks by vernier caliper analysis; format: functional, organism-based
[16] = Toxicity in female BALB/c nu-nu mouse xenografted with human HCT-116 cells assessed as body weight loss at 20 mg/kg, po as submicron emulsion administered once daily for 3 weeks; format: organism-based; settings: in vivo, 504 h
CDK1/Cyclin A = CDK1/Cyclin A (Homo sapiens, UniProt P06493); test: Inhibition of CDK1/cyclA2 (unknown origin) by ADP-Glo assay; format: protein-complex assay
Sequence of CDK1/Cyclin A (P06493 whole entry): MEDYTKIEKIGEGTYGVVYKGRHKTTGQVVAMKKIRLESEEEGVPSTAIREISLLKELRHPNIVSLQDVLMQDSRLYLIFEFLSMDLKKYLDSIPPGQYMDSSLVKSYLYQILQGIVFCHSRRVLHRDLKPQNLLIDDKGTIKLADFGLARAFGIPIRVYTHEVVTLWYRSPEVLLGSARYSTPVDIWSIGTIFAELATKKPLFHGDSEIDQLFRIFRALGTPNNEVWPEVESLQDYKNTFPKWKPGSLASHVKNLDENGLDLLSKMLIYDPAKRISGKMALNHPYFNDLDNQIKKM
Sequence of CDK1/Cyclin A (P20248 whole entry, further chain): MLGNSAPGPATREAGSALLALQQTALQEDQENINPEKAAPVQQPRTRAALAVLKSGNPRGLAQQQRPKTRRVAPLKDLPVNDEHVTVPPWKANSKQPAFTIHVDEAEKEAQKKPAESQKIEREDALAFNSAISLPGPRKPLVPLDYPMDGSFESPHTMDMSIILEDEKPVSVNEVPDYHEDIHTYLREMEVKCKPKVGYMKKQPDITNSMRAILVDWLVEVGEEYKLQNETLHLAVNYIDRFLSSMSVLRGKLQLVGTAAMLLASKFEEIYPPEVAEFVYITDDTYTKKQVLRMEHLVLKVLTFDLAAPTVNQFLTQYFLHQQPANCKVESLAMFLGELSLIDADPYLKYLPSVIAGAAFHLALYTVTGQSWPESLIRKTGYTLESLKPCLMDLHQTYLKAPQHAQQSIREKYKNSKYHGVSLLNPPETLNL

Sequence of CDK9/cyclin T1 (O60563 whole entry): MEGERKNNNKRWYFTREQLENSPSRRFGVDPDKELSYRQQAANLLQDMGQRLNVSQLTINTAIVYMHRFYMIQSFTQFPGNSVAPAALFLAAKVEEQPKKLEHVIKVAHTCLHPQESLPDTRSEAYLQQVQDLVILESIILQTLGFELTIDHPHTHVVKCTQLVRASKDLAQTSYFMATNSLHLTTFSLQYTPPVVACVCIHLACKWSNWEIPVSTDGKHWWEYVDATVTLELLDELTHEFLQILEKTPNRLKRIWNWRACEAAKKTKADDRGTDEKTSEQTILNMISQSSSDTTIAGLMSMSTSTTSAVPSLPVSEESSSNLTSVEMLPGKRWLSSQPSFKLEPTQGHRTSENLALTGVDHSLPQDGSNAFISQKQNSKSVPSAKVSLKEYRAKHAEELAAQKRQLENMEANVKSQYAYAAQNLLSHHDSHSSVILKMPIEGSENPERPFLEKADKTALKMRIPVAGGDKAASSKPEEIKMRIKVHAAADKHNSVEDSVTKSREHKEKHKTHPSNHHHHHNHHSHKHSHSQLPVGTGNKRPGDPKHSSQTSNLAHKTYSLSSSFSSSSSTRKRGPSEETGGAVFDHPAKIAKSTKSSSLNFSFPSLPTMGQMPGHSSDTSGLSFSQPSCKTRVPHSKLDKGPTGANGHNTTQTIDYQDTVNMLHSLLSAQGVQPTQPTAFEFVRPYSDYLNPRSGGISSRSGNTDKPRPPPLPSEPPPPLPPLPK
Sequence of CDK9/cyclin T1 (P50750 whole entry): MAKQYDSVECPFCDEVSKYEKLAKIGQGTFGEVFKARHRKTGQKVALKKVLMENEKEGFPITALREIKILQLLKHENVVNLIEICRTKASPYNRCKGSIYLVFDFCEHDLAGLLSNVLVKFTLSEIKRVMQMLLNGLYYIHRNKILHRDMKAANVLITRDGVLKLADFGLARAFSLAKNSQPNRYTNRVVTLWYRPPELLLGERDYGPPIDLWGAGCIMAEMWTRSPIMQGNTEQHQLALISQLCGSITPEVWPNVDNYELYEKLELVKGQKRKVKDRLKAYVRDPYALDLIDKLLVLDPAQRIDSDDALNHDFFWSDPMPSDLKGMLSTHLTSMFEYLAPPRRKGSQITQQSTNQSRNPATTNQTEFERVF
Sequence of CYP2D6 (P10635 whole entry): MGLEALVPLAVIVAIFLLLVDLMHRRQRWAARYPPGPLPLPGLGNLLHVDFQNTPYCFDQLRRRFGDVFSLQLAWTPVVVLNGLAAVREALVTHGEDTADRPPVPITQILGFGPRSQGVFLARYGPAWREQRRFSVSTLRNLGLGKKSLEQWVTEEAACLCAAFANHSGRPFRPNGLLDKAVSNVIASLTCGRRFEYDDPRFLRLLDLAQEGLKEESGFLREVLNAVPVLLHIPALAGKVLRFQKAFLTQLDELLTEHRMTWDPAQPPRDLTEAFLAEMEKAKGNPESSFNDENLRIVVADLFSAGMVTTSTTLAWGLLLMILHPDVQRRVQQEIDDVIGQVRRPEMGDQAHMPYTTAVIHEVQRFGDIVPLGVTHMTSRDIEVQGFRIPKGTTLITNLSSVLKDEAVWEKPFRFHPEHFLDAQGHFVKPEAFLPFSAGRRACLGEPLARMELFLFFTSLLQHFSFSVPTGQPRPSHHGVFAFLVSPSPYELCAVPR
Sequence of Cellular tumor antigen p53 (Homo sapiens) (P04637 whole entry, looked up): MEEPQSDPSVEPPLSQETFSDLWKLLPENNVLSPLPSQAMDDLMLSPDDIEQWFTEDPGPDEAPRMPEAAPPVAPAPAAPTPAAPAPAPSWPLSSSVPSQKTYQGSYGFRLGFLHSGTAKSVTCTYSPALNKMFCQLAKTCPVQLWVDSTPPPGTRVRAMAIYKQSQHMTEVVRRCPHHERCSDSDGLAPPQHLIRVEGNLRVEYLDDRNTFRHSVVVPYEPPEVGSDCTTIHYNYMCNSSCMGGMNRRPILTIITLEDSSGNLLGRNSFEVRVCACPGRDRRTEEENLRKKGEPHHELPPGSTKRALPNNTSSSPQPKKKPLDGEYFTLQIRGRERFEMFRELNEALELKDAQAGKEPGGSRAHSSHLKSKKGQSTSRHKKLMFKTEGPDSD
Sequence of CYP2C9 (P11712 whole entry): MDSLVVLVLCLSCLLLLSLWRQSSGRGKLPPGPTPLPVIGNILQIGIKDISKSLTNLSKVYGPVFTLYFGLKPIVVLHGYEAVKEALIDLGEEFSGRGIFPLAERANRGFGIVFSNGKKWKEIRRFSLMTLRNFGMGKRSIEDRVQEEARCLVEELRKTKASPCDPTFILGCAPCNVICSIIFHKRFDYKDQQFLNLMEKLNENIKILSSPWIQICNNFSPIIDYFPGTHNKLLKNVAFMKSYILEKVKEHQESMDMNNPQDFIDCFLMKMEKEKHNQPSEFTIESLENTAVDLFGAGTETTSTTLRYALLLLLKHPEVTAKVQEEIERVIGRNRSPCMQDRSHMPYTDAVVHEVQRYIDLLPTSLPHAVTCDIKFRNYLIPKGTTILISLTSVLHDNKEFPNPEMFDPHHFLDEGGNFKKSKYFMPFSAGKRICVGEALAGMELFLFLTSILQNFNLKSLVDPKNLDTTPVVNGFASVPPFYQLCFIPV

AUC(0-t) at 24 h [2]: 1.61 µg·h/mL
Activity [3]: Active
Vd [4]: 1.65 L/kg
MRT inf [6]: 125 min
inhibition at 10 µM (CYP2D6): 42.6%
AUC(0-t) at 24 h [9]: 0.403 µg·h/mL
MRT inf [10]: 20.1 min
half-life [11]: 55.2 min
inhibition at 10 µM (CYP2C9): 15.9%
IC50 (CDK9/cyclin T1): 0.00651 µM
IC50 (CDK1/Cyclin A): 3.87 µM
SMILES: CC(C)Oc1cc(F)ccc1-c1ccnc(NC(=O)Nc2cccc(C(=O)N3CCN(C)CC3)c2)c1
Activity (HCT-116 [1]): Active
Activity (HCT-116 [5]): Active
Activity (HCT-116 [7]): Active
Activity (HCT-116 [8]): Active
Activity (HCT-116 [12]): Active
Activity (HCT-116 [13]): Active
Activity (HCT-116 [14]): Active
Activity (HCT-116 [15]): Active
Activity [16]: Non-toxic
